Data as given in patent US11160820B2 (Dalian Minzu University, priority 2019, dated 2021).
Read-outs that look alike come from different tables or passages of the source.

Tests used:
[1] = tested on: mice with LPS/D-GalN-induced acute hepatic failure; conditions: treatment group administrated with the AFG
Protocol: (§1) The mice of the blank group and the model group were given the equivalent dose of normal saline by gavage for three consecutive days before the establishment of the model. […] Upon the third day of gavage, the mice of the blank group were given the equivalent dose of normal saline by intraperitoneal injection, and the mice of the model group and the groups with low, medium and high doses were given the LPS and the D-GalN by intraperitoneal injection. After 6 hours of modeling, blood and liver tissues were taken. Whole blood was centrifuged (4000 rmp×10 min), and then the supernatant was taken. The liver tissue was washed with normal saline, one-fourth of the large liver lobe was stored in a formalin solution, and the rest of the liver was stored in a refrigerator of −80° C.

[2] = tested on: mice with LPS/D-GalN-induced acute hepatic failure; conditions: for Catalase (CAT) / Glutathione (GSH) / Malondialdehyde (MDA) / Superoxide dismutase (SOD): liver tissue homogenate
Protocol: as §1
The liver tissue homogenate was detected with glutathione (GSH), superoxide dismutase (SOD), malondialdehyde (MDA) and catalase (CAT) kits. The experiment followed the instructions of kits available from Nanjing Jiancheng Bioengineering Institute.
(§2) All experimental data were analyzed by a Graphpad Prism 7.0 software. Statistical analysis between the two groups was conducted by a t test. Variance analysis was conducted by Ordinary one-way ANOVA. A Multiple Comparison method was used for conducting pairwise comparison among multiple groups. When the P value was <0.05, it was considered that there was statistical difference among the data of each group.

[3] = tested on: mice with LPS/D-GalN-induced acute hepatic failure; conditions: for Aspartate transferase (AST) / Alanine transferase (ALT): serum, 6 hours after modeling
Protocol: as §1
Plasma was taken, and determined with alanine transaminase (GPT) and aspartate transferase (GOT) kits. The experiment followed the instructions of the kits available from Nanjing Jiancheng Bioengineering Institute.
as §2

[4] = tested on: mice with LPS/D-GalN-induced acute hepatic failure
Protocol: as §1
The in vitro liver tissue was spread on a white paperboard, observed for the appearance of the liver tissue, and photographed.

[5] = tested on: mice with LPS/D-GalN-induced acute hepatic failure; remark: listed apart in the source
Protocol: as §1
The liver tissue was soaked in a 10% formalin solution, washed under running water, dehydrated with ethanol solutions of low to high concentrations, xylene solution, embedded with paraffin, sectioned, stained with H&E, and observed under a microscope for the pathological morphology of the liver tissue.

[6] = tested on: mice with acute hepatitis/hepatic failure caused by LPS/D-GalN; conditions: through a TLR4 signaling pathway; International Immunopharmacology, 2018, 61:266-276; cited from earlier work
[7] = groups with medium and high doses of the AFG, P<0.05
[8] = AFG 25 mg/kg by gavage for 3 days before LPS/D-GalN
[9] = AFG 50 mg/kg by gavage for 3 days before LPS/D-GalN
[10] = AFG 100 mg/kg by gavage for 3 days before LPS/D-GalN
[11] = group with the high dose of the AFG, P<0.01

N=C(N)NCCC[C@H](NCC(=O)[C@@H](O)[C@H](O[C@H]1O[C@H](CO)[C@@H](O)[C@H](O)[C@H]1O)[C@H](O)CO)C(=O)O [AFG, argininyl fructosy glucose]
number of apoptotic cells (TUNEL) compared with the model group [1]: significantly reduced | level of CAT compared with the model group [2, 7]: increased significantly | level of MDA compared with the model group [2, 7]: increased significantly | level of SOD compared with the model group [2, 7]: increased significantly | Catalase (CAT) [2, 8]: 34.01 ± 2.75 | Glutathione (GSH) [2, 8]: 51.91 ± 3.29 | Malondialdehyde (MDA) [2, 8]: 133.37 ± 5.38 | Superoxide dismutase (SOD) [2, 8]: 11.48 ± 1.77 | Catalase (CAT) [2, 9]: 51.66 ± 6.19 | Glutathione (GSH) [2, 9]: 67.94 ± 3.58 | Malondialdehyde (MDA) [2, 9]: 104.00 ± 3.13 | Superoxide dismutase (SOD) [2, 9]: 20.98 ± 3.72 | Catalase (CAT) [2, 10]: 61.44 ± 8.96 | Glutathione (GSH) [2, 10]: 136.00 ± 6.90 | Malondialdehyde (MDA) [2, 10]: 94.44 ± 6.87 | Superoxide dismutase (SOD) [2, 10]: 26.54 ± 2.93 | improvement of acute hepatic failure caused by the combination of LPS and D-GalN ([3]; AFG in the range from 50 mg/kg to 100 mg/kg, overall conclusion): can significantly improve the acute hepatic failure | level of ALT in the serum compared with the model group [3, 11]: significantly decreased | level of AST in the serum compared with the model group [3, 11]: significantly decreased | Aspartate transferase (AST) ([3]; AFG 25 mg/kg by gavage for 3 days before LPS 40 μg/kg + D-GalN 700 mg/kg i.p.): 260.52 ± 5.58 | Alanine transferase (ALT) [3, 8]: 187.45 ± 3.48 | Alanine transferase (ALT) [3, 9]: 116.13 ± 3.37 | Aspartate transferase (AST) [3, 9]: 146.43 ± 0.93 | Alanine transferase (ALT) [3, 10]: 71.90 ± 5.97 | Aspartate transferase (AST) [3, 10]: 80.48 ± 5.09 | appearance of the liver, protection effect ([4]; group protected with the high dose): the protection effect was obvious | appearance of the liver ([4]; with the increase of the protection dose): gradually tended to be of a normal state | H&E stained liver sections compared with the model group ([5]; group with the high dose of the AFG): the cells had relatively complete structures | H&E stained liver sections compared with the model group ([5]; group with the medium dose of the AFG): cellular necrosis was significantly improved

CC(C)=CCC[C@](C)(O[C@@H]1O[C@H](CO)[C@@H](O)[C@H](O)[C@H]1O)[C@H]1CC[C@]2(C)[C@@H]1[C@H](O)C[C@@H]1[C@@]3(C)CC[C@H](O)C(C)(C)[C@@H]3[C@@H](O[C@@H]3O[C@H](CO)[C@@H](O)[C@H](O)[C@H]3O)C[C@]12C [ginsenoside Rg1]
protective role on mice with acute hepatitis/hepatic failure caused by LPS/D-GalN [6]: plays a protective role
